Counter-ions that a name gives are not always drawn.
Test system: blood, cerebellum, spinal cord
Test: Transcriptional profiling, chronic dosing, EAE mice: blood, cerebellum, spinal cord
Assay type: in vivo
Conditions: for Number of differentially expressed genes identified: Cerebellum / Number of differentially expressed genes identified: Spinal Cord / Number of differentially expressed genes identified: Whole blood: EAE, Chronic Dosing
Method: 2011 March 134(Pt3): 678-92. […] FIG. 17 depicts exemplary immunophenotyping panels used to analyze various immune cell populations (e.g., T cells, T regulatory cells, NK cells, B cells, myeloid cells). […] Animals were exposed to CO2 and whole blood collected via cardiac puncture. Two 100 μl aliquots of whole blood were collected in 1.5 mL microcentrifuge tubes and snap frozen in liquid nitrogen. Peripheral (liver, spleen, kidney and jejunum) and CNS brain (cerebellum, hippocampus, striatum and cortex) tissues were harvested and snap frozen in liquid nitrogen, with special care taken to collect tissues of similar size and from the same location. All samples were stored at -80° C. until RNA extraction was conducted. For RNA preparation, frozen tissues were placed in 2 mL RNAse-free 96-well blocks with 1.5 mL QIAzol Lysis Reagent (QIAgen) and a 3.2 mm stainless steel bead (BioSpec Products, Bartlesville, Okla.). Tissues were disrupted for four cycles of 45 seconds in a Mini-Beadbeater (Biospec Products). RNA was extracted in chloroform and the aqueous phase was mixed with an equal volume of 70% ethanol. Extracted RNA was applied to RNeasy 96 plates and purified by the spin method according to the manufacturer's protocol (RNeasy 96 Universal Tissue Protocol, QIAgen, Hilden Germany). 50 ul of snap frozen mouse blood was re-suspended in lysis buffer with proteinase K and arrayed into deep-well plates for automated RNA extraction. RNA extractions were completed on […] (Beckman Coulter, Indianapolis, Ind.) using Agencourt RNAdvance Blood kit (Part number A35604) according to the manufacturer's specifications. RNA integrity was assessed using the HT RNA reagent kit (Part number 760410, Caliper Life Sciences, Hopkinton, Mass.) using a LabChip GX (PerkinElmer, Waltham, Mass.). RNA samples with a RQS score of >8.0 were considered high quality for downstream microarray processing. […] Washing and staining of the hybridized arrays were completed as described in the GeneChip Expression analysis technical manual for HT plate arrays using the Genechip® Array Station (Affymetrix, Santa Clara, Calif.) with modifications as described in […] et al. The processed GeneChip® plate arrays were scanned using GeneTitan scanner (Affymetrix, Santa Clara, Calif.). Affymetrix scans were subject to quality control (QC) measures. These tests included a visual inspection of the distribution of raw signal intensities and an assessment of RNA degradation, relative log expression (RLE), and normalized unscaled standard error (NUSE). All sample scans that passed these QC metrics were included in the analysis. […] Nucleic Acids Res 2003; 31:e15; Li C, et al. Genome Biol 2001; 2:[…]0032). […] Stat Appl Genet Mol Biol 2004; 3:Article3). […] Springer Science+Business Media 2005).

[1] = 100 mpk DMF-vs-90 mpk MMF, 7 h after last dosing
[2] = 100 mpk DMF-vs-90 mpk MMF, 12 h after last dosing
[3] = 100 mpk DMF-vs-Vehicle, 7 h after last dosing
[4] = 100 mpk DMF-vs-Vehicle, 12 h after last dosing
[5] = spinal cord, 100DMF-vs-90MMF, 7 h
[6] = spinal cord, 100DMF-vs-90MMF, 12 h
[7] = spinal cord, 100DMF-vs-Veh, 7 h
[8] = spinal cord, 100DMF-vs-Veh, 12 h
[9] = tissue not given, 100DMF-vs-90MMF, 7 h
[10] = tissue not given, 100DMF-vs-90MMF, 12 h
[11] = 90 mpk MMF-vs-Vehicle, 7 h after last dosing
[12] = 90 mpk MMF-vs-Vehicle, 12 h after last dosing
[13] = spinal cord, 100MMF-vs-Veh, 7 h
[14] = spinal cord, 100MMF-vs-Veh, 12 h
[15] = tissue not given, 100MMF-vs-Veh, 12 h

COC(=O)/C=C/C(=O)OC [DMF, dimethyl fumarate]
Number of differentially expressed genes identified: Cerebellum [1]: 2
Number of differentially expressed genes identified: Spinal Cord [1]: 2
Number of differentially expressed genes identified: Whole blood [1]: 0
Number of differentially expressed genes identified: Cerebellum [2]: 3
Number of differentially expressed genes identified: Spinal Cord [2]: 40
Number of differentially expressed genes identified: Whole blood [2]: 0
Number of differentially expressed genes identified: Cerebellum [3]: 0
Number of differentially expressed genes identified: Spinal Cord [3]: 3
Number of differentially expressed genes identified: Whole blood [3]: 8
Number of differentially expressed genes identified: Cerebellum [4]: 0
Number of differentially expressed genes identified: Spinal Cord [4]: 3
Number of differentially expressed genes identified: Whole blood [4]: 8
FC 2900055J20Rik (1430675_PM_at) [5]: −1.58
FC LOC100047123 (1446154_PM_at) [5]: −1.56
FC 1423020_PM_at (no gene symbol) [6]: 1.59
FC 1440425_PM_at (no gene symbol) [6]: 1.57
FC 1440449_PM_at (no gene symbol) [6]: 1.61
FC 1441606_PM_at (no gene symbol) [6]: 1.57
FC 1442650_PM_at (no gene symbol) [6]: 1.92
FC 1442813_PM_at (no gene symbol) [6]: 2.21
FC 1443212_PM_at (no gene symbol) [6]: 1.82
FC 1443237_PM_at (no gene symbol) [6]: 1.59
FC 1444001_PM_at (no gene symbol) [6]: 1.58
FC 1446481_PM_at (no gene symbol) [6]: 1.59
FC 1447354_PM_at (no gene symbol) [6]: 1.54
FC 1458147_PM_at (no gene symbol) [6]: 1.60
FC 1458697_PM_at (no gene symbol) [6]: 1.72
FC 1459235_PM_at (no gene symbol) [6]: 1.65
FC 1459288_PM_at (no gene symbol) [6]: 1.66
FC 1459310_PM_at (no gene symbol) [6]: 1.87
FC 2410089E03Rik 1443422_PM_at [6]: 1.55
FC 2410089E03Rik (1458493_PM_a_at) [6]: 2.00
FC 4933439F18Rik (1427068_PM_x_at) [6]: 1.52
FC 6330436F06Rik (1433015_PM_at) [6]: 1.52
FC 9330156P08Rik (1458073_PM_at) [6]: 2.08
FC A230006K03Rik (1432408_PM_a_at) [6]: 1.59
FC A730034C02 /// Mtap2 (1421327_PM_at) [6]: 1.69
FC B230112I24Rik (1433187_PM_at) [6]: 1.64
FC BC066028 (1439850_PM_at) [6]: 1.56
FC Cdk14 (1453956_PM_a_at) [6]: 1.76
FC Dnajc27 (1434946_PM_at) [6]: 1.85
FC Dnm3 (1446265_PM_at) [6]: 1.54
FC Fgf14 (1449958_PM_a_at) [6]: 1.76
FC Flnb (1445534_PM_at) [6]: 1.55
FC Gzma (1417898_PM_a_at) [6]: −5.32
FC Htr2c (1450477_PM_at) [6]: 1.65
FC Kif22 (1423813_PM_at) [6]: −1.68
FC Per3 (1442243_PM_at) [6]: 1.54
FC Pole (1448650_PM_a_at) [6]: −1.60
FC Rgs7bp (1437559_PM_at) [6]: 1.50
FC Sema6d (1446536_PM_at) [6]: 1.57
FC Sgol1 (1418919_PM_at) [6]: −1.61
FC Slc25a27 (1440090_PM_at) [6]: 1.56
FC Zfp398 (1456639_PM_at) [6]: 1.57
FC Aox1 (1419435_PM_at) [7]: 1.68
FC Rnf128 (1418318_PM_at) [7]: 1.72
FC Rnf128 (1449036_PM_at) [7]: 1.60
FC 1446104_PM_at (no gene symbol) [8]: 1.57
FC Gzma (1417898_PM_a_at) [8]: −4.64
FC Kif22 (1423813_PM_at) [8]: −1.62
FC 1459289_PM_at (no gene symbol) [9]: 1.52
FC Nr4a2 (1455034_PM_at) [9]: −1.51
FC 1444901_PM_at (no gene symbol) [10]: −1.68
FC Cyp4f16 /// Gm9705 (1430172_PM_a_at) [10]: 1.54
FC Nr4a3 (1438796_PM_at) [10]: −1.82

COC(=O)/C=C/C(=O)O [MMF, monomethyl fumarate]
Number of differentially expressed genes identified: Cerebellum [11]: 2
Number of differentially expressed genes identified: Spinal Cord [11]: 7
Number of differentially expressed genes identified: Whole blood [11]: 19
Number of differentially expressed genes identified: Cerebellum [12]: 3
Number of differentially expressed genes identified: Spinal Cord [12]: 2
Number of differentially expressed genes identified: Whole blood [12]: 7
FC Agxt2l1 (1431406_PM_at) [13]: 1.78
FC Cxcl11 (1419697_PM_at) [13]: −3.36
FC Ddx58 (1436562_PM_at) [13]: −1.67
FC Ifi44 (1423555_PM_a_at) [13]: −1.99
FC Ifit1 (1450783_PM_at) [13]: −1.67
FC Plac8 (1451335_PM_at) [13]: −2.04
FC Tor3a (1450454_PM_at) [13]: −1.57
FC 1439946_PM_at (no gene symbol) [14]: −1.62
FC Dbp (1418174_PM_at) [14]: −1.58
FC 1459557_PM_at (no gene symbol) (tissue not given, 100MMF-vs-Veh, 7 h): 2.30
FC 1442025_PM_a_at (no gene symbol) [15]: −1.84
FC 1442026_PM_at (no gene symbol) [15]: −1.91
FC 4933423P22Rik (1454223_PM_at) [15]: 1.53

From US20160115540A1, “PRODRUGS AND DRUGS” (Biogen MA Inc., priority 2013, published 2016)
